Test results from ChEMBL document CHEMBL1135350, “Synthesis of an arabinofuranosyl disaccharide photoaffinity probe for arabinosyltransferase activity in Mycobacterium tuberculosis” (Bioorg Med Chem Lett, 2002).

Tested on: Mycobacterium tuberculosis
Experiment: Enzyme kinetic constant of compound for Arabinosyltransferase in Mycobacterium tuberculosis was determined

[N-]=[N+]=Nc1cccc2c(S(=O)(=O)NCCOC3O[C@H](COC4O[C@H](CO)[C@@H](O)[C@H]4O)[C@@H](O)[C@H]3O)cccc12 (some centres not stated)
Km: 3.07 mM
Vmax (pM min-1 mg-1): 4.26
